According to PubChem BioAssay AID1919002 (Molecular Pharmacology Branch, DTP, NCI, 2023):
“And” between values parts separate entries of the source, which are not always exact repeats. Equal values may be shown once.

Tested on: 743489-274-T-PDC complex spheroid growth
Experiment: Anticancer human tumor 743489-274-T-PDC patient-derived renal cell carcinoma cell line growth inhibition [AhR]
Settings: for viability, T/C: stronger effect = lower value; active means viability on the fitted dose curve at most 10% of control; inactive means the rest
From the text: Multicellular complex tumor spheroid response to aryl hydrocarbon receptor antagonists in combination with a variety of drugs and investigational agents in selected tumor cell lines
The current study was undertaken to assess response to aryl hydrocarbon receptor antagonists in combination with standard-of-care drugs and investigational agents in solid tumor complex spheroid models. Complex spheroids include a stromal component modeled by human endothelial cells (HUVEC) and fibroblasts modeled by human mesenchymal stem cells (MSCs). The concentration ranges selected for each drug and investigational agent were based upon clinically achievable concentrations if the clinical Cmax of the agent was known.
Compounds. The drugs and investigational agents: BAY 2416964 (NSC825713), GNF351 (NSC835774), CH-223191 (NSC835775), CPI-455 (NSC825282), aza-TdCyd (NSC777586), decitabine (NSC127716), belinostat (NSC758774), entinostat (NSC756642), pevonedistat (NSC761192), tazemetostat (NSC777109), talazoparib (NSC765396), olaparib (NSC753686), selinexor (NSC780203), nedisertib (M3814, NSC802822), bortezomib (NSC756655), venetoclax (NSC766270), doxorubicin (NSC123127), elimusertib (BAY189344, NSC800525), ceralasertib (AZD6738, NSC777638), TAK-243 (NSC785004), alisertib (NSC759677), etoposide (NSC141540), topotecan (NSC609699), eribulin (NSC707389), gemcitabine (NSC613327), carboplatin (NSC241240), cisplatin (NSC119875), and SN-38 (NSC673596) were obtained from the National Cancer Institute (NCI) Developmental Therapeutics Program Chemical Repository (32). The FDA-approved anticancer drug set is available from the Developmental Therapeutics Program at https://dtp.cancer.gov/organization/dscb/obtaining/available plates.htm. […] The stock solutions were prepared in dimethyl sulfoxide (DMSO, Sigma-Aldrich, St. Louis, MO, cat. D2650), except for the platinum compounds which were prepared in saline (Quality Biological, Gaithersburg, MD, cat. 114-055-101), at 800-fold the tested concentration and stored at -70 degrees C prior to their use. All drugs and investigational agents were tested over a range starting from a high concentration at or near the clinical Cmax and decreasing in half-log increments. If the clinical Cmax for an agent had not been determined, the highest concentration tested was 10 microM (Table 1).
Cell Culture. All cells were maintained in an incubator at 37 degrees C and 5% CO2 with 95% humidity. The PDC lines were cultured according to standard operating procedures established by the NCI PDMR (https://pdmr.cancer.gov). Briefly, all PDCs were thawed and cultured in Matrigel-coated flasks prepared with a working solution of 1X Ham's F-12 nutrient mix, without supplementation (Invitrogen, Waltham, MA, cat. 11765054), 100 U/mL penicillin-streptomycin (Invitrogen, cat. 15140122), and 2.5% Matrigel (Corning Inc., Corning, NY, cat. 354248) for the first three passages. All PDCs were cultured in complete DMEM/F-12 media containing advanced DMEM/F-12 (Invitrogen, cat. 12634028), 4.9% defined fetal bovine serum, heat inactivated (HyClone Laboratories Inc., Logan, UT, cat. SH30070.03HI), 389 ng/mL hydrocortisone (Sigma-Aldrich, cat. H4001), 9.7 ng/mL human EGF recombinant protein (Invitrogen, cat. PHG0313), 23.4 microg/mL adenine (Sigma-Aldrich, cat. A2786), 97.3 U/mL penicillin-streptomycin (Invitrogen, cat. 15140122), 1.9 mM L-glutamine (Invitrogen, cat. 25030081), and 9.7 microM Y-27632 dihydrochloride (Tocris Bioscience, Bristol, United Kingdom, cat. 1254). The PDCs were cultured in complete DMEM/F12 media without 10 microM Y-27632 dihydrochloride for at least two passages prior to the screen. The established cell lines NCI-H1341 and […] were cultured in DMEM/F-12, HEPES (Invitrogen, cat. 11330032), 5% defined fetal bovine serum (HyClone Laboratories Inc., cat. SH30070.03), ITS premix universal culture supplement [insulin (5 microg/mL), transferrin (5 microg/mL), and selenious acid (5 ng/mL)] […]

[1] = curve of first compound, second compound 0.1 µM
[2] = curve of first compound, second compound 0.316 µM
[3] = curve of first compound, second compound 1 µM
[4] = curve of first compound, second compound 3.16 µM
[5] = curve of first compound, second compound 10 µM
[6] = second compound 0.1 µM, first compound 0.0316 µM
[7] = second compound 0.1 µM, first compound 0.1 µM
[8] = second compound 0.1 µM, first compound 0.316 µM
[9] = second compound 0.1 µM, first compound 1 µM
[10] = second compound 0.1 µM, first compound 3.16 µM
[11] = second compound 0.1 µM, first compound 10 µM
[12] = second compound 0.316 µM, first compound 0.0316 µM
[13] = second compound 0.316 µM, first compound 0.1 µM
[14] = second compound 0.316 µM, first compound 0.316 µM
[15] = second compound 0.316 µM, first compound 1 µM
[16] = second compound 0.316 µM, first compound 3.16 µM
[17] = second compound 0.316 µM, first compound 10 µM
[18] = second compound 1 µM, first compound 0.0316 µM
[19] = second compound 1 µM, first compound 0.1 µM
[20] = second compound 1 µM, first compound 0.316 µM
[21] = second compound 1 µM, first compound 1 µM
[22] = second compound 1 µM, first compound 3.16 µM
[23] = second compound 1 µM, first compound 10 µM
[24] = second compound 3.16 µM, first compound 0.0316 µM
[25] = second compound 3.16 µM, first compound 0.1 µM
[26] = second compound 3.16 µM, first compound 0.316 µM
[27] = second compound 3.16 µM, first compound 1 µM
[28] = second compound 3.16 µM, first compound 3.16 µM
[29] = second compound 3.16 µM, first compound 10 µM
[30] = second compound 10 µM, first compound 0.0316 µM
[31] = second compound 10 µM, first compound 0.1 µM
[32] = second compound 10 µM, first compound 0.316 µM
[33] = second compound 10 µM, first compound 1 µM
[34] = second compound 10 µM, first compound 3.16 µM
[35] = second compound 10 µM, first compound 10 µM
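Further: spheroids exposed to agents for 7 days before readout.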
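Wherever viability, T/C is given: 100% = DMSO vehicle control wells.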

CC(C)c1c(-c2ccccc2)nc2c(C#N)c[nH]n2c1=O + Cc1cncc(-c2nc(NCCc3c[nH]c4ccccc34)c3ncn(C(C)C)c3n2)c1
> 10 µM: IC50 [1] | IC50 [2] | IC50 [3] | IC50 [4] | IC50 [5]
inactive: viability, T/C [6] 101% | viability, T/C [7] 126% | viability, T/C [8] 104% | viability, T/C [9] 103% | viability, T/C [10] 96.2% | viability, T/C [11] 104% | viability, T/C [12] 112% | viability, T/C [13] 104% | viability, T/C [14] 101% | viability, T/C [15] 107% | viability, T/C [16] 100% | viability, T/C [17] 96.7% | viability, T/C [18] 107% | viability, T/C [19] 103% | viability, T/C [20] 111% | viability, T/C [21] 96.7% | viability, T/C [22] 105% | viability, T/C [23] 102% | viability, T/C [24] 114% | viability, T/C [25] 119% | viability, T/C [26] 121% | viability, T/C [27] 119% | viability, T/C [28] 110% | viability, T/C [29] 115% | viability, T/C [30] 126% | viability, T/C [31] 141% | viability, T/C [32] 133% | viability, T/C [33] 125% | viability, T/C [34] 109% | viability, T/C [35] 134%

NS(=O)(=O)OCC1CC(n2ccc3c(NC4CCc5ccccc54)ncnc32)CC1O (configuration not stated) + CC(CO)NC(=O)c1cc(-c2ccc(Cl)cc2)nn(-c2cnn(C)c2)c1=O
> 10 µM: IC50 [1] | IC50 [2] | IC50 [3] | IC50 [4] | IC50 [5]
inactive: viability, T/C [6] 89.3% | viability, T/C [7] 89.7% | viability, T/C [8] 101% | viability, T/C [9] 123% | viability, T/C [10] 149% | viability, T/C [11] 155% | viability, T/C [12] 86.1% | viability, T/C [13] 82.3% | viability, T/C [14] 85.7% | viability, T/C [15] 119% | viability, T/C [16] 148% | viability, T/C [17] 156% | viability, T/C [18] 82.3% | viability, T/C [19] 96.7% | viability, T/C [20] 99.2% | viability, T/C [21] 116% | viability, T/C [22] 141% | viability, T/C [23] 143% | viability, T/C [24] 91.1% | viability, T/C [25] 86.1% | viability, T/C [26] 99.2% | viability, T/C [27] 109% | viability, T/C [28] 132% | viability, T/C [29] 136% | viability, T/C [30] 89.5% | viability, T/C [31] 96.1% | viability, T/C [32] 84.8% | viability, T/C [33] 112% | viability, T/C [34] 119% | viability, T/C [35] 129%

CCc1c2c(nc3ccc(O)cc13)-c1cc3c(c(=O)n1C2)COC(=O)[C@]3(O)CC
inactive: viability, T/C (compound 0.000949 µM) 105% and 85% and 104% | viability, T/C (compound 0.003 µM) 105% and 102% and 103% | viability, T/C (compound 0.00949 µM) 102% and 85.4% and 107% | viability, T/C (compound 0.03 µM) 83% and 70.5% and 95.8% | viability, T/C (compound 0.0949 µM) 77.1% and 65.4% and 83.9% | viability, T/C (compound 0.3 µM) 68.5% and 50.5% and 59.9%
> 0.3 µM: IC50 (curve of compound)

O=C(C=Cn1cnc(-c2cc(C(F)(F)F)cc(C(F)(F)F)c2)n1)NNc1cnccn1 + Cc1ccccc1N=Nc1ccc(NC(=O)c2ccnn2C)c(C)c1
> 3 µM: IC50 [1] | IC50 [2] | IC50 [3] | IC50 [4] | IC50 [5]
inactive: viability, T/C (second compound 0.1 µM, first compound 0.00949 µM) 106% | viability, T/C (second compound 0.1 µM, first compound 0.03 µM) 110% | viability, T/C (second compound 0.1 µM, first compound 0.0949 µM) 118% | viability, T/C (second compound 0.1 µM, first compound 0.3 µM) 140% | viability, T/C (second compound 0.1 µM, first compound 0.949 µM) 121% | viability, T/C (second compound 0.1 µM, first compound 3 µM) 104% | viability, T/C (second compound 0.316 µM, first compound 0.00949 µM) 105% | viability, T/C (second compound 0.316 µM, first compound 0.03 µM) 102% | viability, T/C (second compound 0.316 µM, first compound 0.0949 µM) 115% | viability, T/C (second compound 0.316 µM, first compound 0.3 µM) 133% | viability, T/C (second compound 0.316 µM, first compound 0.949 µM) 103% | viability, T/C (second compound 0.316 µM, first compound 3 µM) 94% | viability, T/C (second compound 1 µM, first compound 0.00949 µM) 97.8% | viability, T/C (second compound 1 µM, first compound 0.03 µM) 107% | viability, T/C (second compound 1 µM, first compound 0.0949 µM) 128% | viability, T/C (second compound 1 µM, first compound 0.3 µM) 140% | viability, T/C (second compound 1 µM, first compound 0.949 µM) 110% | viability, T/C (second compound 1 µM, first compound 3 µM) 97.1% | viability, T/C (second compound 3.16 µM, first compound 0.00949 µM) 102% | viability, T/C (second compound 3.16 µM, first compound 0.03 µM) 97.7% | viability, T/C (second compound 3.16 µM, first compound 0.0949 µM) 109% | viability, T/C (second compound 3.16 µM, first compound 0.3 µM) 127% | viability, T/C (second compound 3.16 µM, first compound 0.949 µM) 95.4% | viability, T/C (second compound 3.16 µM, first compound 3 µM) 82.5% | viability, T/C (second compound 10 µM, first compound 0.00949 µM) 90.8% | viability, T/C (second compound 10 µM, first compound 0.03 µM) 85.8% | viability, T/C (second compound 10 µM, first compound 0.0949 µM) 99.7% | viability, T/C (second compound 10 µM, first compound 0.3 µM) 128% | viability, T/C (second compound 10 µM, first compound 0.949 µM) 101% | viability, T/C (second compound 10 µM, first compound 3 µM) 79.2%
